Assay results: patent US20040014791A1, “Thiazolidinedione derivative and its use as antidiabetic” (priority 2000, published 2004)

Columns and labels:
[1] = Flow properties: Hausner Ratio (bulk density vs tapped bulk density); format: physicochemical; conditions: ratio between the bulk density and the tapped bulk density; product of Example 3
Description: When used herein in respect of certain compounds the term “good flow properties” is suitably characterised by the said compound having a Hausner ratio of less than or equal to 1.5, especially of less than or equal to 1.25.
Flow Properties of the Fumarate
The ratio between the bulk density and the tapped bulk density (Hausner Ratio) of the Fumarate was determined using standard methods (“Pharmaceutics—The Science of Dosage Form Design”, editor M. Aulton, 1988, published by: Churchill Livingstone).

[2] = Solid state stability of the drug substance (storage, HPLC assay for final content and degradation products); format: physicochemical; conditions: 1 month, product of Example 3
Description: The solid state stability of the drug substance was determined by storing approximately 1.0 g of the material in a glass bottle at a) 40° C./75% Relative Humidity (RH), open exposure, for 1 month and b) at 50° C., closed, foe 1 month. The material was assayed by HPLC for final content and degradation products in both cases.

[3] = 40° C./75% Relative Humidity (RH), open exposure

CN(CCOc1ccc(CC2SC(=O)NC2=O)cc1)c1ccccn1.O=C(O)/C=C/C(=O)O (centres unmarked) [Fumarate, 5-[4-[2-(N-methyl-N-(2-pyridyl)amino)ethoxy]benzyl]thiazolidine-2,4-dione fumarate]
Hausner Ratio [1]: 1.0 | Solid state stability: HPLC assay [2, 3]: 100 % initial | Solid state stability: degradation observed [2, 3]: No significant degradation observed | Solid state stability: HPLC assay ([2]; 50° C., closed): 99 % initial | Solid state stability: degradation observed ([2]; 50° C., closed): No significant degradation observed
